Results as given in paper PMC7407272, “Induction of Lysosome Membrane Permeabilization as a Therapeutic Strategy to Target Pancreatic Cancer Stem Cells” (Cancers, 2020).

What was measured:
LRRK2 = molecular target: T1, LRRK2 (Homo sapiens, UniProt Q5S007); assay: KINOMEscan; type: binding; settings: read-out: % Ctrl
T1 construct: purchased DiscoveRx KINOMEscan

PKNB(M.tuberculosis) = molecular target: T2, PKNB(M.tuberculosis) (Mycobacterium tuberculosis, UniProt P9WI81); assay: KINOMEscan; type: binding; settings: read-out: % Ctrl
T2 construct: purchased DiscoveRx KINOMEscan

HIPK4 = molecular target: T3, HIPK4 (Homo sapiens, UniProt Q8NE63); assay: KINOMEscan; type: binding; settings: read-out: % Ctrl
T3 construct: purchased DiscoveRx KINOMEscan

KIT(V559D) = molecular target: T4, KIT(V559D) (Homo sapiens, UniProt P10721, V559D); assay: KINOMEscan; type: binding; settings: read-out: % Ctrl
T4 construct: purchased DiscoveRx KINOMEscan

FLT3(N841I) = molecular target: T5, FLT3(N841I) (Homo sapiens, UniProt P36888, N841I); assay: KINOMEscan; type: binding; settings: read-out: % Ctrl
T5 construct: purchased DiscoveRx KINOMEscan

RPS6KA5(KD1-N-t.) = molecular target: T6, RPS6KA5(KD1-N-t.) (Homo sapiens, UniProt O75582); assay: KINOMEscan; type: binding; settings: read-out: % Ctrl
T6 construct: RPS6KA5(KD1-N-t.); purchased DiscoveRx KINOMEscan

RET(V804L) = molecular target: T7, RET(V804L) (Homo sapiens, UniProt P07949, V804L); assay: KINOMEscan; type: binding; settings: read-out: % Ctrl
T7 construct: purchased DiscoveRx KINOMEscan

FGFR3(G697C) = molecular target: T8, FGFR3(G697C) (Homo sapiens, UniProt P22607, G697C); assay: KINOMEscan; type: binding; settings: read-out: % Ctrl
T8 construct: purchased DiscoveRx KINOMEscan

PFTK1 = molecular target: T9, PFTK1 (Homo sapiens, UniProt O94921); assay: KINOMEscan; type: binding; settings: read-out: % Ctrl
T9 construct: purchased DiscoveRx KINOMEscan

PDAC4 3D spheres = assay: Viability curves on PDAC4 3D spheres; type: cell-based, human; settings: Homo sapiens, 30 h
From the text: The PDAC patient-derived xenograft (PDX) Panc354 (referred to hereafter as PDAC3) was obtained from Dr. Manuel Hidalgo under a Material Transfer Agreement with the Spanish National Cancer Centre (CNIO), Madrid, Spain (Reference no. I409181220BSMH). PDAC1, PDAC2 and PDAC4 PDXs were established from primary patient resected tumors. Samples were provided by the BioBank Hospital Ramón y Cajal-IRYCIS (PT13/0010/0002), integrated in the Spanish National Biobanks Network and they were processed following standard operating procedures with the appropriate approval of the Ethical and Scientific Committees (Control no. No. Control: DE-BIOB-73 AC65, RG.BIOB-96 REV, and CI-BIOB-08-10-01 rev), with informed consent and according to Declaration of Helsinki principles. Primary patient tumors were subcutaneously implanted in immunocompromised female 6- to 8-week-old NU-Foxn1nu nude mice (Envigo, Barcelona, Spain) and subsequently passage in vivo to establish PDX PDAC1, PDAC2 and PDAC4. Primary PDX-derived in vitro cultures were established as previously detailed. […]
Pancreatic CSC spheres were generated as previously described in ultra-low attachment plates (Corning) using CSC media: serum-free DMEM/F12 medium (1:1; #21331-020; Gibco, Waltham, MA, USA), supplemented with Pen/Strep (1:100; #1500-063; Gibco, Waltham, MA, USA), Fungizone (1:250; #15290-018; Gibco), L-Glutamine (1:100; #25030-024; Gibco, Waltham, MA, USA), B-27 (1:50; #17504-044; Gibco, Waltham, MA, USA) and basic fibroblast growth factor (FGF-b) (1:5000; Gibco, Waltham, MA, USA). […] To quantify spheres of > 40 μm, 1 mL of sample volume was analyzed with a CASY® Cell Counter (Roche Applied Sciences, Mannheim, Germany). […]

PDGFRB = molecular target: T10, PDGFRB (Homo sapiens, UniProt P09619); assay: KINOMEscan; type: binding; settings: read-out: % Ctrl
T10 construct: purchased DiscoveRx KINOMEscan

ERK4 = molecular target: T11, ERK4 (Homo sapiens, UniProt P31152); assay: KINOMEscan; type: binding; settings: read-out: % Ctrl
T11 construct: purchased DiscoveRx KINOMEscan

TSSK3 = molecular target: T12, TSSK3 (Homo sapiens, UniProt Q96PN8); assay: KINOMEscan; type: binding; settings: read-out: % Ctrl
T12 construct: purchased DiscoveRx KINOMEscan

ADCK3 = molecular target: T13, ADCK3 (Homo sapiens, UniProt Q8NI60); assay: KINOMEscan; type: binding; settings: read-out: % Ctrl
T13 construct: purchased DiscoveRx KINOMEscan

AAK1 = molecular target: T14, AAK1 (Homo sapiens, UniProt Q2M2I8); assay: KINOMEscan; type: binding; settings: read-out: % Ctrl
T14 construct: purchased DiscoveRx KINOMEscan

KIT = molecular target: T15, KIT (Homo sapiens, UniProt P10721); assay: KINOMEscan; type: binding; settings: read-out: % Ctrl
T15 construct: purchased DiscoveRx KINOMEscan

PDAC2 cultures = assay: Sphere formation assay; type: cell-based, human; settings: 0.1 µg/mL GEM or Cpd 1 at 1.25 or 2.5 µM
From the text: (§1) Pancreatic CSC spheres were generated as previously described in ultra-low attachment plates (Corning) using CSC media: serum-free DMEM/F12 medium (1:1; #21331-020; Gibco, Waltham, MA, USA), supplemented with Pen/Strep (1:100; #1500-063; Gibco, Waltham, MA, USA), Fungizone (1:250; #15290-018; Gibco), L-Glutamine (1:100; #25030-024; Gibco, Waltham, MA, USA), B-27 (1:50; #17504-044; Gibco, Waltham, MA, USA) and basic fibroblast growth factor (FGF-b) (1:5000; Gibco, Waltham, MA, USA). All cell culture was carried out at 37 °C in a 5% CO2 humidified incubator. To quantify spheres of > 40 μm, 1 mL of sample volume was analyzed with a CASY® Cell Counter (Roche Applied Sciences, Mannheim, Germany). The CASY® Cell Counter measuring principle is based on a capillary particle counter with pulse area analysis, that permits the determination of cell count, cell concentration, cell volume (peak), and average cell diameter, specifically diameters of 40–80 μm, 80–120 μm and >120 μm.

PDAC4 cultures = assay: Sphere formation assay; type: cell-based, human; settings: 0.1 µg/mL GEM or Cpd 1 at 1.25 or 2.5 µM
From the text: as §1

T6 sequence (O75582 1-387 limits assumed): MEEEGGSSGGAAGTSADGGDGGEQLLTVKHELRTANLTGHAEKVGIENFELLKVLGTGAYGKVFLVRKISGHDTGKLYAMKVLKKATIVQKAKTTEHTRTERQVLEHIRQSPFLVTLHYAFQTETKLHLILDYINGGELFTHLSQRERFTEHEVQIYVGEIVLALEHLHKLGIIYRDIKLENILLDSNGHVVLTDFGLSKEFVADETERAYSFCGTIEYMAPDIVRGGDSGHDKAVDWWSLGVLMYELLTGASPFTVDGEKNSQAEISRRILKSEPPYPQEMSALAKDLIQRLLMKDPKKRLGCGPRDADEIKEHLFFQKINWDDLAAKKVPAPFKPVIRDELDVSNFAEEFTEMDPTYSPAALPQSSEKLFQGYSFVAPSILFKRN
T11 sequence (P31152 whole entry): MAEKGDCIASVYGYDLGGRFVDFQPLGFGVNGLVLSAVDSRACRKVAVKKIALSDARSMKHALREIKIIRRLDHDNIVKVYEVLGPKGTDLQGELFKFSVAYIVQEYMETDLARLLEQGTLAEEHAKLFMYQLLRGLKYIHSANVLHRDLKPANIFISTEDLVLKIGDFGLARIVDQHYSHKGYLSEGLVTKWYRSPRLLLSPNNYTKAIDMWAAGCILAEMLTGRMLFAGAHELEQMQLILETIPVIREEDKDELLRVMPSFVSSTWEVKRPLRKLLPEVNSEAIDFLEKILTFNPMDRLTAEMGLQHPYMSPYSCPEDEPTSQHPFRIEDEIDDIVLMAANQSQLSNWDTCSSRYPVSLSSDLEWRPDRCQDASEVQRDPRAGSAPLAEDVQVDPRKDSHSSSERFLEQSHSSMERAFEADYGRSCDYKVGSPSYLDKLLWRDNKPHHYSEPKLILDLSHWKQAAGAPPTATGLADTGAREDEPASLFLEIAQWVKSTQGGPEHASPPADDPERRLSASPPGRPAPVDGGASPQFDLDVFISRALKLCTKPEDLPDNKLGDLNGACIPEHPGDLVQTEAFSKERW
T2 sequence (P9WI81 whole entry): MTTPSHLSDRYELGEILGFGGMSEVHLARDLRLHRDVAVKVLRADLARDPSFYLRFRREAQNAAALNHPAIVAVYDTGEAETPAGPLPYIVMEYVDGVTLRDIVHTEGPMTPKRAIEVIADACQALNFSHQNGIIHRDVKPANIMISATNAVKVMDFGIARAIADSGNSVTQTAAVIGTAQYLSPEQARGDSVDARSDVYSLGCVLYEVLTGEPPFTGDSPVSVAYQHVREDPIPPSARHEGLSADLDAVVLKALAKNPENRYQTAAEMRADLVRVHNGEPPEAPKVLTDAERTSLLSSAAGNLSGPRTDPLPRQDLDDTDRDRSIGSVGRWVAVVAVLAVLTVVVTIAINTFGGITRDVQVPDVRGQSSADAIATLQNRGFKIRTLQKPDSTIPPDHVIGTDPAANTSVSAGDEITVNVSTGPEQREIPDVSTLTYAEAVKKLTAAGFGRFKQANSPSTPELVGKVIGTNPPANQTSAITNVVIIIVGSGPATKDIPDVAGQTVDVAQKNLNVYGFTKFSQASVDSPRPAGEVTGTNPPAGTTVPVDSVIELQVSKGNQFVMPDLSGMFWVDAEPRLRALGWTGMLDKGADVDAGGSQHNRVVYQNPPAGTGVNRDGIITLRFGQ
T3 sequence (Q8NE63 whole entry): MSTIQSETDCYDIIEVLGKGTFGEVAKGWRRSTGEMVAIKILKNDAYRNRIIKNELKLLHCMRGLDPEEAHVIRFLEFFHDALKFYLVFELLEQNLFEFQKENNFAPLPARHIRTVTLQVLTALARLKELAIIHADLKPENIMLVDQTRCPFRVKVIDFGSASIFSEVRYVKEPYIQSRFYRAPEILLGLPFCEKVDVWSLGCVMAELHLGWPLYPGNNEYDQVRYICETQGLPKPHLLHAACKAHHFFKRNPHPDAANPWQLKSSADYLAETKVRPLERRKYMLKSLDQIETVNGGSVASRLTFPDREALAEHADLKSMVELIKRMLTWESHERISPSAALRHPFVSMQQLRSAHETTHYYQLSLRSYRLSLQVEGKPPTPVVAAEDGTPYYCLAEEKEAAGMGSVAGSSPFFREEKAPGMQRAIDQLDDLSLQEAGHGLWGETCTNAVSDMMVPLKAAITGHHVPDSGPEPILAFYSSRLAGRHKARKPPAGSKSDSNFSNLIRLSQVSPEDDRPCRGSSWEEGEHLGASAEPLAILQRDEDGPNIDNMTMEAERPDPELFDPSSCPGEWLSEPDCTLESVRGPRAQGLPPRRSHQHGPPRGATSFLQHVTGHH
T13 sequence (Q8NI60 163-647): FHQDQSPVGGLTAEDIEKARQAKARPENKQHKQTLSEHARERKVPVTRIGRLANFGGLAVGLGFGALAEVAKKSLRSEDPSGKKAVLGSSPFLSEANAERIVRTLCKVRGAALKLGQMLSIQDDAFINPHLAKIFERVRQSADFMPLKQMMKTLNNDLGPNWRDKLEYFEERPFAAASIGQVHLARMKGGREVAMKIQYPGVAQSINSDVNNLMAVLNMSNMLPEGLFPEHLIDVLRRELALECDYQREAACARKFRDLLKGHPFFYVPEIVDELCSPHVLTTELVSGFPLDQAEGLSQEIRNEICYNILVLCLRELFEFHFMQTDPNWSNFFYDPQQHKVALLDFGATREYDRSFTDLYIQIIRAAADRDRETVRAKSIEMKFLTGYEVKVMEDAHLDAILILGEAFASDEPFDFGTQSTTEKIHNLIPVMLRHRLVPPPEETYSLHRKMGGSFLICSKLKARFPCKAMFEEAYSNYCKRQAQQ
T12 sequence (Q96PN8 whole entry): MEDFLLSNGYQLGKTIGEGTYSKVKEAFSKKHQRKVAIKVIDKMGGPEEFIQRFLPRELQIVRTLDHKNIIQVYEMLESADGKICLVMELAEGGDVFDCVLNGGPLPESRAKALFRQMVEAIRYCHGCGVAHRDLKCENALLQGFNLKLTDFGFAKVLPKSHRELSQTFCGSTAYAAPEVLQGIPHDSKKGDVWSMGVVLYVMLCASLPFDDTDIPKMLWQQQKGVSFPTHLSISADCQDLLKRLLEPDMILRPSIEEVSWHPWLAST
T7 sequence (P07949 29-1114 V804L): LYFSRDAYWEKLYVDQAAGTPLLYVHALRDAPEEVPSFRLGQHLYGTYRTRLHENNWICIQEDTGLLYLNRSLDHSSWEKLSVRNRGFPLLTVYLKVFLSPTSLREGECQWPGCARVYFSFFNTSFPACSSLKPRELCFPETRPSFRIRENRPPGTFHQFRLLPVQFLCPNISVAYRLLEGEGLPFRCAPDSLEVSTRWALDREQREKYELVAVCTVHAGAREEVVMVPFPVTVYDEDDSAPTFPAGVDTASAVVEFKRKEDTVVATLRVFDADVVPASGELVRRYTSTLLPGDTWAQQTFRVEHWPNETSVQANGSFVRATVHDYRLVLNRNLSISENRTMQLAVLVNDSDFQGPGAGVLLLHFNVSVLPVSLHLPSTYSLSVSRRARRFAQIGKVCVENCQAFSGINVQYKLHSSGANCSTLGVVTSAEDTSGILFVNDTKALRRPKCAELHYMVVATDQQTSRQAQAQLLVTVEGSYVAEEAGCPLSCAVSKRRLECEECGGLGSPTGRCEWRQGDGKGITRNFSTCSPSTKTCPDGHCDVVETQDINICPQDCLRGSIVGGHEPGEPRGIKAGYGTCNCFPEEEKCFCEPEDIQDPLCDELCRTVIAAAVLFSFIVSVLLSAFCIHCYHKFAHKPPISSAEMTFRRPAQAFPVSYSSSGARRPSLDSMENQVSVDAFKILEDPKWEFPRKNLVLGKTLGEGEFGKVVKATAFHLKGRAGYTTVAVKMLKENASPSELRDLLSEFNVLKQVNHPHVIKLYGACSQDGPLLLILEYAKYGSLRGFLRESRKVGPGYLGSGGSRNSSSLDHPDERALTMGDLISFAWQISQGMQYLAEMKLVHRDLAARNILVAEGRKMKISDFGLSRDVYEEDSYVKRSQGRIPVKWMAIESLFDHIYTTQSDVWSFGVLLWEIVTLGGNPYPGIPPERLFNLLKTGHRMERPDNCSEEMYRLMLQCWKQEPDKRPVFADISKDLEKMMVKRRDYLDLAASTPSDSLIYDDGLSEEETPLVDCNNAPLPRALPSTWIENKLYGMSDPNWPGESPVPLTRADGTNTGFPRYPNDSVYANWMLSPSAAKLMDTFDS
T4 sequence (P10721 26-976 V559D): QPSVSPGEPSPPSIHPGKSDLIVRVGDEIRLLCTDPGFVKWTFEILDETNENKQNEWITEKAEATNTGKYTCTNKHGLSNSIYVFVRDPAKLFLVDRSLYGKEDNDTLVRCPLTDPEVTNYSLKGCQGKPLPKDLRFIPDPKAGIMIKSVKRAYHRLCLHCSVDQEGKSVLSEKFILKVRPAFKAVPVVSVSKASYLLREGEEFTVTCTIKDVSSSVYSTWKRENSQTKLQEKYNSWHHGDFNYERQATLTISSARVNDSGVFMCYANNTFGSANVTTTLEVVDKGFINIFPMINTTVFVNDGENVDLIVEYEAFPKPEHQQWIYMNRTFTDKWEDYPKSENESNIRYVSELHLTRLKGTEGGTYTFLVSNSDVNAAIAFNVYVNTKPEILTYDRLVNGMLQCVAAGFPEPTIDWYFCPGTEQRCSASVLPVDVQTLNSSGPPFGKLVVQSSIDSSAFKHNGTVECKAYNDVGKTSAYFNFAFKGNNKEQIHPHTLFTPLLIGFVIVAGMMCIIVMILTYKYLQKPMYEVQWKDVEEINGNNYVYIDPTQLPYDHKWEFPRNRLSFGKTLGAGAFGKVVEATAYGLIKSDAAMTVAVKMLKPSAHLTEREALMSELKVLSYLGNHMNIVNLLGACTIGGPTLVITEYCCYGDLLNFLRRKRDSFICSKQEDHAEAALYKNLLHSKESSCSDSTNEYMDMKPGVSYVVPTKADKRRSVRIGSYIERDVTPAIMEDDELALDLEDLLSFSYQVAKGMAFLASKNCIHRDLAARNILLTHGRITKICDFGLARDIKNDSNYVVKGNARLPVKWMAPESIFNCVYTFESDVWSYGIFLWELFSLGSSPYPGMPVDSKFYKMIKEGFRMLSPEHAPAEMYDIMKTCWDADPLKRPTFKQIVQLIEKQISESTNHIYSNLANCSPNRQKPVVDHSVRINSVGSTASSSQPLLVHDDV

## CN1CCC(CNc2ccc3ncc(C(=O)Nc4cccc(OC(F)(F)F)c4)n3n2)CC1 [Cpd 2]
LRRK2
  remaining binding at 1 µM: 68%
PKNB(M.tuberculosis)
  remaining binding at 1 µM: 90%
HIPK4
  remaining binding at 1 µM: 88%
KIT(V559D)
  remaining binding at 1 µM: 95%
FLT3(N841I)
  remaining binding at 1 µM: 60%
RPS6KA5(KD1-N-t.)
  remaining binding at 1 µM: 100%
RET(V804L)
  remaining binding at 1 µM: 100%
FGFR3(G697C)
  remaining binding at 1 µM: 99%
PFTK1
  remaining binding at 1 µM: 97%
PDAC4 3D spheres
  EC50: 7.17 µM
PDGFRB
  remaining binding at 1 µM: 92%
ERK4
  remaining binding at 1 µM: 100%
TSSK3
  remaining binding at 1 µM: 95%
ADCK3
  remaining binding at 1 µM: 100%
AAK1
  remaining binding at 1 µM: 89%
KIT
  remaining binding at 1 µM: 99%

## COc1nc2ccc(NCC3CCN(C)CC3)nn2c1C(=O)Nc1cccc(OC(F)(F)F)c1 [Cpd 1]
PDAC2 cultures
  sphere-forming capacity: decreased sphere forming capacity
PDAC4 cultures
  sphere-forming capacity: decreased sphere forming capacity
